Measurements published in ChEMBL document CHEMBL1157827, “The synthesis and biological evaluation of quinolyl-piperazinyl piperidines as potent serotonin 5-HT1A antagonists” (J Med Chem, 2010).
One block for each molecule: values may come before it. Activity calls are given as the source filed them. The calls are words filed in the database; no cut-off is given here.

Legend:
[1] = biological target: T1, 5-hydroxytryptamine receptor 1A (Homo sapiens, UniProt P08908)
T1 sequence (P08908 whole entry): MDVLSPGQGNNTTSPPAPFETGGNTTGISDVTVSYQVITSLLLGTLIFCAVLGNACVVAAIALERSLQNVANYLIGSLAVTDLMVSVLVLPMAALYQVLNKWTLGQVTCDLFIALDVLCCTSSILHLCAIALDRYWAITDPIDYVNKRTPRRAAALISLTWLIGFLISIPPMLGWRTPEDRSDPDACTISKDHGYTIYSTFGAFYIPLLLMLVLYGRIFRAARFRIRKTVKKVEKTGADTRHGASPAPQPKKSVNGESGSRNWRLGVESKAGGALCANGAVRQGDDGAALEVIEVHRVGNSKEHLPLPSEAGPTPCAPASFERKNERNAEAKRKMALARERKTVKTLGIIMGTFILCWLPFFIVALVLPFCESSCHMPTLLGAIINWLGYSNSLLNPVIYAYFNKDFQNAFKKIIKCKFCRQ

in vitro [2] = conditions: rat, liver microsomes
Description: Half life in rat liver microsomes at 1 uM after 20 mins

in vitro [3] = conditions: human, liver microsomes
Description: Half life in human liver microsomes at 1 uM after 20 mins

[4] = biological target: T1, 5-hydroxytryptamine receptor 1A; experiment: biochemical
Description: (§3) Displacement of [3H]8-OH-DPAT from human 5HT1A receptor expressed in CHO cells

Rattus norvegicus [5] = experiment: Cognitive enhancing effect in po dosed Long-Evans rat assessed as reversal of 48 hrs delay-induced cognitive deficit at 0.1 mg/kg, po measured after 1 hr by novel object recognition test in presence of 0.5 mg/kg acetylcholinesterase inhibitor donepazil; format: functional, organism-based
Rattus norvegicus [6] = experiment: Cognitive enhancing effect in Long-Evans rat assessed as decrease in mean escape latency at 3 to 10 mg/kg, po by atlantis water maze test; format: functional, organism-based
Rattus norvegicus [7] = experiment: Cognitive enhancing effect in Long-Evans rat assessed as increase in dwell time within trigger zone during acquisition training at 3 mg/kg, po by atlantis water maze test; format: functional, organism-based; design: dose 3 mg/kg
Rattus norvegicus [8] = experiment: Cognitive enhancing effect in Long-Evans rat assessed as increase in dwell time within trigger zone during acquisition training at 10 mg/kg, po by atlantis water maze test; format: functional, organism-based; design: dose 10 mg/kg
Rattus norvegicus [9] = experiment: Cognitive enhancing effect in Long-Evans rat assessed as effect on swim speed during acquisition training at 3 to 10 mg/kg, po by atlantis water maze test; format: functional, organism-based
Mus musculus = experiment: Cognitive enhancing effect in po dosed transgenic 2576 mouse overexpressing human APP K670N/M671L double mutant assessed as minimal effective dose for enhancement of contextual memory measured after 1 hr by contextual fear conditioning assay; format: functional; conditions: read-out: MED
Rattus norvegicus [10] = experiment: Increase in fluoxetine-induced increase in serotonin level in Sprague-Dawley rat frontal cortex at 10 mg/kg, po administered 30 mins before fluoxetine challenge measured after 20 mins by microdialysis assay relative to basal level; format: functional
Rattus norvegicus [11] = experiment: Effect on obsessive compulsive behavior in Sprague-Dawley rat assessed as inhibition of polydipsia stimulated by food intake of a schedule of every 2 minutes for 2 hrs at 5.6 mg/kg, ip after 30 mins; format: functional, organism-based; design: dose 5.6 mg/kg
Rattus norvegicus [12] = experiment: Effect on obsessive compulsive behavior in Sprague-Dawley rat assessed as inhibition of polydipsia stimulated by food intake of a schedule of every 2 minutes for 2 hrs at 10 mg/kg, po after 30 mins; format: functional, organism-based; design: dose 10 mg/kg
Rattus norvegicus [13] = experiment: Effect on obsessive compulsive behavior in po dosed Sprague-Dawley rat assessed as enhancement of fluoxetine-induced inhibition of polydipsia stimulated by food intake of a schedule of every 2 minutes for 2 hrs administered 30 mins before fluoxetine challenge measured after 30 mins; format: functional, organism-based
Rattus norvegicus [14] = experiment: Enhancement of fluoxetine-induced inhibition of polydipsia stimulated by food intake of a schedule of every 2 minutes for 2 hrs in Sprague-Dawley rat assessed as minimal effective dose administered 30 mins before fluoxetine challenge measured after 30 mins; format: functional; conditions: read-out: MED
Rattus norvegicus [15] = experiment: Antidepressant activity in Sprague-Dawley rat assessed as inhibition of olfactory bulbectomy-induced hyperlocomotor activity at 5.6 mg/kg, ip QD fro 7 days measured after 14 days post-surgery; format: functional, organism-based; design: dose 5.6 mg/kg
Rattus norvegicus [16] = experiment: Enhancement of fluoxetine-induced inhibition of olfactory bulbectomy-mediated hyperlocomotor activity in Sprague-Dawley rat at 10 mg/kg, po coadministered with fluoxetine QD for 7 days measured after 14 days post-surgery; format: functional, organism-based; design: dose 10 mg/kg
Rattus norvegicus [17] = experiment: Induction of sexual dysfunction in Sprague-Dawley rat assessed as decrease in noncontact penile erection at 10 mg/kg, ip QD for 14 days measured after day 14; format: organism-based; design: dose 10 mg/kg, route intraperitoneal; scale not given: the % may be the effect or the level left; conditions: in vivo, 336 h
Rattus norvegicus [18] = experiment: Inhibition of fluoxetine-induced decrease in noncontact penile erection in Sprague-Dawley rat at 10 mg/kg, po coadministered with fluoxetine QD for 14 days measured after day 14; format: functional, organism-based; design: dose 10 mg/kg
Rattus norvegicus [19] = experiment: Inhibition of fluoxetine-induced decrease in noncontact penile erection in Sprague-Dawley rat at 10 mg/kg, po coadministered with fluoxetine; format: functional, organism-based; design: dose 10 mg/kg
Rattus norvegicus [20] = experiment: Effect of noncontact penile erection in Sprague-Dawley rat at 10 mg/kg, po QD for 14 days measured after day 14; format: functional, organism-based; design: dose 10 mg/kg
Rattus norvegicus [21] = experiment: Effect of noncontact penile erection in Sprague-Dawley rat at 10 mg/kg, po; format: functional, organism-based; design: dose 10 mg/kg
[22] = Volume of distribution at steady state in Sprague-Dawley rat at 1 mg/kg, iv administered as single dose by LC/MS/MS analysis; format: ADME, organism-based; design: dose 1 mg/kg, route intravenous; conditions: in vivo, read-out: Vdss
[23] = Cmax in Sprague-Dawley rat at 3 mg/kg, po administered as single dose by LC/MS/MS analysis; format: ADME, organism-based; design: dose 3 mg/kg, route oral; conditions: in vivo
[24] = Tmax in Sprague-Dawley rat at 3 mg/kg, po administered as single dose by LC/MS/MS analysis; format: ADME, organism-based; design: dose 3 mg/kg, route oral; conditions: in vivo
[25] = Half life in Sprague-Dawley rat at 3 mg/kg, po administered as single dose by LC/MS/MS analysis; format: ADME, organism-based; design: dose 3 mg/kg, route oral; conditions: in vivo
Rattus norvegicus [26] = experiment: (§1) AUC in Sprague-Dawley rat at 3 mg/kg, po administered as single dose by LC/MS/MS analysis; format: ADME, organism-based, Plasma; design: dose 3 mg/kg, route oral; conditions: in vivo
Rattus norvegicus [27] = experiment: (§2) Oral bioavailability in Sprague-Dawley rat at 3 mg/kg administered as single dose by LC/MS/MS analysis; format: ADME, organism-based; conditions: in vivo
[28] = Ratio of drug level in brain to plasma in Sprague-Dawley rat at 3 mg/kg, po administered as single dose; format: ADME, organism-based; design: dose 3 mg/kg, route oral; conditions: read-out: BPR
Rattus norvegicus [29] = experiment: Effect on serotonin release in Sprague-Dawley rat cortex at 10 mg/kg, po after 40 mins microdialysis assay; format: functional, organism-based; design: dose 10 mg/kg
Rattus norvegicus [30] = experiment: Inhibition of 8-OH-DPAT-induced decrease in extracellular serotonin level Sprague-Dawley rat cortex at 10 mg/kg, po administered 30 mins before 8-OH-DPAT challenge; format: functional, organism-based; design: dose 10 mg/kg
Rattus norvegicus [31] = experiment: Increase in acetylcholine level in Sprague-Dawley rat dorsal hippocampus at 10 mg/kg, po after 40 to 200 mins microdialysis assay; format: functional, organism-based; design: dose 10 mg/kg
Rattus norvegicus [32] = experiment: Cognitive enhancing effect in po dosed Long-Evans rat assessed as minimal effective dose for reversal of 48 hrs delay-induced cognitive deficit measured after 1 hr by novel object recognition test; format: functional; conditions: read-out: MED
Rattus norvegicus [33] = experiment: In vivo receptor occupancy of 5HT1A receptor Long-Evans rat frontal cortex at 0.1 to 10 mg/kg, po by [3H]WAY100635 displacement assay; format: functional; conditions: dose mg/kg 0.1-10
Rattus norvegicus [34] = experiment: In vivo receptor occupancy of 5HT1A receptor Long-Evans rat […] hippocampus at 0.1 to 10 mg/kg, po by [3H]WAY100635 displacement assay; format: functional; conditions: dose mg/kg 0.1-10
Rattus norvegicus [35] = experiment: Cognitive enhancing effect in po dosed Long-Evans rat assessed as minimal effective dose for reversal of MK-801-induced memory deficit administered 30 mins prior to MK801 challenge measured after 1 hr by novel object recognition test; format: functional; conditions: read-out: MED
Rattus norvegicus [36] = experiment: Cognitive enhancing effect in po dosed Long-Evans rat assessed as minimal effective dose for reversal of scopolamine-induced memory deficit administered 30 mins prior to MK801 challenge measured after 1 hr by novel object recognition test; format: functional; conditions: read-out: MED
[37] = biological target: T1, 5-hydroxytryptamine receptor 1A; conditions: cho
Description: as §3

[38] = Clearance in Sprague-Dawley rat at 1 mg/kg, iv administered as single dose by LC/MS/MS analysis; format: ADME, organism-based; design: dose 1 mg/kg, route intravenous; conditions: in vivo
[39] = as §1; format: ADME, organism-based, Plasma; design: dose 3 mg/kg, route oral; conditions: Sprague-Dawley, plasma
[40] = as §2; format: ADME, organism-based; conditions: Sprague-Dawley, in vivo
Plasma = experiment: Drug level in Sprague-Dawley rat plasma at 3 mg/kg, po administered as single dose by LC/MS/MS analysis; format: ADME, organism-based; design: dose 3 mg/kg, route oral; conditions: in vivo

IC50 [1]: 46.5 nM
half-life at 20 min, 1 µM (in vitro [2]): 2 min
half-life at 20 min, 1 µM (in vitro [3]): 4 min
Ki [4]: 3.4 nM
SMILES: COc1cc(N2CCN(C3CCN(c4cc(F)cc5cccnc45)CC3)CC2)c2ncccc2c1

SMILES: COc1cc(N2CCN(C3CCN(c4ccc(F)c5cccnc45)CC3)CC2)c2ncccc2c1
Activity (Rattus norvegicus [5]): Active
Activity (Rattus norvegicus [6]): Active
Activity (Rattus norvegicus [7]): inactive
Activity (Rattus norvegicus [8]): Active
Activity (Rattus norvegicus [9]): inactive
minimal effective dose (Mus musculus): 0.3 mg/kg
Activity (Rattus norvegicus [10]): 120%
Activity (Rattus norvegicus [11]): inactive
Activity (Rattus norvegicus [12]): inactive
Activity (Rattus norvegicus [13]): Dose-dependent effect
minimal effective dose (Rattus norvegicus [14]): 3 mg/kg
Activity (Rattus norvegicus [15]): inactive
Activity (Rattus norvegicus [16]): Active
Activity (Rattus norvegicus [17]): 54%
Activity (Rattus norvegicus [18]): Active
Activity (Rattus norvegicus [19]): Active
Activity (Rattus norvegicus [20]): inactive
Activity (Rattus norvegicus [21]): inactive
Vd [22]: 2.6 L/kg
Cmax [23]: 247 ng/mL
Tmax [24]: 48 min
half-life [25]: 66 min
AUC (Rattus norvegicus [26]): 472 ng·h/mL
F (Rattus norvegicus [27]): 33%
Kp [28]: 1.3
Activity (Rattus norvegicus [29]): inactive
Activity (Rattus norvegicus [30]): Active
Activity (Rattus norvegicus [31]): Active
minimal effective dose (Rattus norvegicus [32]): 0.3 mg/kg
Activity (Rattus norvegicus [33]): 20%
Activity (Rattus norvegicus [34]): 20%
minimal effective dose (Rattus norvegicus [35]): 1 mg/kg
minimal effective dose (Rattus norvegicus [36]): 0.3 mg/kg
IC50 [1]: 2.7 nM
Ki [37]: 0.4 nM
half-life at 20 min, 1 µM (in vitro [2]): 2 min
half-life at 20 min, 1 µM (in vitro [3]): 6 min

IC50 [1]: 1.4 nM
half-life at 20 min, 1 µM (in vitro [2]): 2 min
half-life at 20 min, 1 µM (in vitro [3]): 2 min
Ki [4]: 0.61 nM
SMILES: COc1cc(N2CCN(C3CCN(c4cccc5c(C)ccnc45)CC3)CC2)c2ncccc2c1

IC50 [1]: 4.8 nM
half-life at 20 min, 1 µM (in vitro [2]): 4 min
half-life at 20 min, 1 µM (in vitro [3]): < 1 min
Ki [4]: 0.63 nM
SMILES: COc1cc(N2CCN(C3CCN(c4cccc5c(C)cc(C)nc45)CC3)CC2)c2ncccc2c1

IC50 [1]: 5.9 nM
half-life at 20 min, 1 µM (in vitro [2]): 2 min
half-life at 20 min, 1 µM (in vitro [3]): 2 min
Ki [4]: 0.46 nM
SMILES: COc1cc(N2CCN(C3CCN(c4cccc5cc(C)cnc45)CC3)CC2)c2ncccc2c1

IC50 [1]: 47 nM
half-life at 20 min, 1 µM (in vitro [2]): < 1 min
half-life at 20 min, 1 µM (in vitro [3]): 3 min
Ki [4]: 0.54 nM
SMILES: COc1cc(N2CCN(C3CCN(c4cccc5ccc(C)nc45)CC3)CC2)c2ncccc2c1

IC50 [1]: 7 nM
half-life at 20 min, 1 µM (in vitro [2]): 3 min
half-life at 20 min, 1 µM (in vitro [3]): 3 min
Ki [4]: 3.6 nM
SMILES: COc1cc(N2CCN(C3CCN(c4ccc(F)c5ccc(C(F)(F)F)nc45)CC3)CC2)c2ncccc2c1

IC50 [1]: 23 nM
half-life at 20 min, 1 µM (in vitro [2]): 2 min
half-life at 20 min, 1 µM (in vitro [3]): 3 min
Ki [4]: 1.8 nM
SMILES: COc1cc(N2CCN(C3CCN(c4cccc5ccc(C(F)(F)F)nc45)CC3)CC2)c2ncccc2c1

clearance [38]: 38.7 mL/min/kg
Vd [22]: 2.8 L/kg
Cmax [23]: 130 ng/mL
Tmax [24]: 60 min
half-life [25]: 72 min
AUC [39]: 360 ng·h/mL
bioavailability [40]: 27%
Kp [28]: 2.8
concentration (Plasma): 200 nM
half-life at 20 min, 1 µM (in vitro [2]): 2 min
half-life at 20 min, 1 µM (in vitro [3]): 3 min
SMILES: COc1cc(N2CCN(C3CCN(c4cccc5cccnc45)CC3)CC2)c2ncccc2c1
